Values quoted from earlier work in paper PMC10544023, “Oxetanes in Drug Discovery Campaigns” (Journal of Medicinal Chemistry, 2023).
Each block holds one molecule with its values, some of them ahead of it.

Columns and labels:
c-KIT (V654A) = test system: c-KIT (V654A); parameters: method as in ref 49 = [49]; a Liang J.; Jakalian A.; Lambrecht M. J.; Larouche-Gauthier R.; Huestis M.; Ung M. U.; Wang X.; Yadav A.; Zbieg J. R.; Broccatelli F. Lactams as Cbl-b Inhibitors , WO Patent Appl. no. WO20221
T- versus B-cells = test system: T- versus B-cells; parameters: method as in PMID 32292557; settings: selectivity of T- versus B-cells; ref 35a
rat = test system: rat; parameters: method as in ref 33a = [33]; a Crawford J. J.; Zhang H. In ACS Symposium Series; American Chemical Society , 2019; Vol. 1332 , pp 239 – 266 . b For an overview of all clinical trials and further investigations, see: Drug Bank; settings: rat pilot study; ref 33a
dog = test system: dog; parameters: method as in ref 33a = [33]; a Crawford J. J.; Zhang H. In ACS Symposium Series; American Chemical Society , 2019; Vol. 1332 , pp 239 – 266 . b For an overview of all clinical trials and further investigations, see: Drug Bank; settings: dog pilot study; ref 33a
[1] = amine nitrogen; ref 37a
hERG = test system: hERG; parameters: method as in PMID 24900569; settings: ref 37a
LRRK2 (WT) = test system: LRRK2 (WT); parameters: method as in ref 49 = [49]; a Liang J.; Jakalian A.; Lambrecht M. J.; Larouche-Gauthier R.; Huestis M.; Ung M. U.; Wang X.; Yadav A.; Zbieg J. R.; Broccatelli F. Lactams as Cbl-b Inhibitors , WO Patent Appl. no. WO20221; settings: read-out: LRRK2 inhibitor (WT) IC50
Cbl-b = test system: Cbl-b; parameters: method as in ref 49 = [49]; a Liang J.; Jakalian A.; Lambrecht M. J.; Larouche-Gauthier R.; Huestis M.; Ung M. U.; Wang X.; Yadav A.; Zbieg J. R.; Broccatelli F. Lactams as Cbl-b Inhibitors , WO Patent Appl. no. WO20221; settings: read-out: Cbl-b inhibitor IC50
LRRK2 = test system: LRRK2; parameters: method as in ref 49 = [49]; a Liang J.; Jakalian A.; Lambrecht M. J.; Larouche-Gauthier R.; Huestis M.; Ung M. U.; Wang X.; Yadav A.; Zbieg J. R.; Broccatelli F. Lactams as Cbl-b Inhibitors , WO Patent Appl. no. WO20221; settings: read-out: LRRK2 inhibitor IC50
EZH2 = test system: EZH2; parameters: method as in ref 49 = [49]; a Liang J.; Jakalian A.; Lambrecht M. J.; Larouche-Gauthier R.; Huestis M.; Ung M. U.; Wang X.; Yadav A.; Zbieg J. R.; Broccatelli F. Lactams as Cbl-b Inhibitors , WO Patent Appl. no. WO20221; settings: read-out: EZH2 inhibitor IC50
KIT D816V = test system: KIT D816V; parameters: method as in ref 49 = [49]; a Liang J.; Jakalian A.; Lambrecht M. J.; Larouche-Gauthier R.; Huestis M.; Ung M. U.; Wang X.; Yadav A.; Zbieg J. R.; Broccatelli F. Lactams as Cbl-b Inhibitors , WO Patent Appl. no. WO20221
PDGFRα D842V = test system: PDGFRα D842V; parameters: method as in ref 49 = [49]; a Liang J.; Jakalian A.; Lambrecht M. J.; Larouche-Gauthier R.; Huestis M.; Ung M. U.; Wang X.; Yadav A.; Zbieg J. R.; Broccatelli F. Lactams as Cbl-b Inhibitors , WO Patent Appl. no. WO20221

Compound: CCN1CCN(c2ccc(Nc3nc(-c4ccc5cn[nH]c5c4)cn4ccnc34)cc2)CC1 [4-ethyl-piperazine]
calcd pKaH (piperazine analogues of entospletinib, ref 35a): 8.0

Compound: c1cn2cc(-c3ccc4cn[nH]c4c3)nc(Nc3ccc(N4CCN(C5COC5)CC4)cc3)c2n1 [oxetane on the 4-position]
T/B ratio (T- versus B-cells): 10

Compound: CN1CCN(c2ccc(Nc3cc(-c4cccc(N5CCc6c(sc7c6CC(C)(C)C7)C5=O)c4CO)cn(C)c3=O)nc2)CC1 [compound 4]
hepatotoxicity (rat): high hepatotoxicity | hepatotoxicity (dog): high hepatotoxicity

Compound: C[C@H](C(F)F)n1cc(Nc2ncc3cc(C#N)n([C@H]4COC[C@@H]4C)c3n2)c(OC2COC2)n1 [Sanofi WO 2022/263472 A1]
IC50 (LRRK2 (WT)): 1 nM

Compound: Cc1ccc2ccc(N[C@H]3CC[C@H](CNc4ncc(C(F)(F)C(=O)NC5COC5)cn4)CC3)nc2c1Cl [Novartis WO 2022/033492 A1]
IC50 (EZH2): < 10 nM

Now from value to molecule, other results behind:

IC50 (c-KIT (V654A)): 3.3 nM
Compound: Cn1ncc(-c2ccc(CNc3cc(-c4cnc5cc(OCCN6CC7(COC7)C6)ccn45)ncn3)cc2)n1 [Merck WO 2021/013864 A1]

pKaH (predicted) (piperazine ring): 6.3
Compound: C[C@H]1CN(C2COC2)CCN1c1ccc(Nc2cc(-c3ccnc(N4CCn5c(cc6c5CC(C)(C)C6)C4=O)c3CO)cn(C)c2=O)nc1 [Fenebrutinib, fenebrutinib]

pKaH [1]: 5.0
Compound: CCNC(=O)Nc1ccc(-c2nc3c(c(N4CCOC[C@@H]4C)n2)CCN(C2COC2)C3)cc1 [GDC-0349]
IC50 (hERG): > 100000 nM

IC50 (Cbl-b): 5.5 nM
Compound: CC(C)[C@@H]1CN(C)CCN1Cc1cc2c(c(C(F)(F)F)c1)CN(c1cc(C3(Cc4nncn4C)COC3)cc(OC3CCCC3)n1)C2=O [Genentech WO 2022/169997 A1]

IC50 (LRRK2): < 10 nM
Compound: O=C1NCCCOc2ccc3[nH]nc(c3c2)-c2cc(cc(N3CCC4(COC4)C3)c2)CO1

IC50 (KIT D816V): < 4.5 nM | IC50 (PDGFRα D842V): < 4.5 nM
Compound: C[C@](N)(c1ccc(F)cc1)c1cnc(N2CCN(c3ncnn4cc(-c5cnn(CC6COC6)c5)cc34)CC2)nc1 [Bluprint Medicines WO 2020/210293 A1]
